Experiment [1] deals with T1, COX-2 (Homo sapiens, UniProt P35354).
T1 construct: endogenous in cells; host or cells: fresh heparinized human whole blood from volunteers, induced with LPS
T1 sequence (P35354 18-604): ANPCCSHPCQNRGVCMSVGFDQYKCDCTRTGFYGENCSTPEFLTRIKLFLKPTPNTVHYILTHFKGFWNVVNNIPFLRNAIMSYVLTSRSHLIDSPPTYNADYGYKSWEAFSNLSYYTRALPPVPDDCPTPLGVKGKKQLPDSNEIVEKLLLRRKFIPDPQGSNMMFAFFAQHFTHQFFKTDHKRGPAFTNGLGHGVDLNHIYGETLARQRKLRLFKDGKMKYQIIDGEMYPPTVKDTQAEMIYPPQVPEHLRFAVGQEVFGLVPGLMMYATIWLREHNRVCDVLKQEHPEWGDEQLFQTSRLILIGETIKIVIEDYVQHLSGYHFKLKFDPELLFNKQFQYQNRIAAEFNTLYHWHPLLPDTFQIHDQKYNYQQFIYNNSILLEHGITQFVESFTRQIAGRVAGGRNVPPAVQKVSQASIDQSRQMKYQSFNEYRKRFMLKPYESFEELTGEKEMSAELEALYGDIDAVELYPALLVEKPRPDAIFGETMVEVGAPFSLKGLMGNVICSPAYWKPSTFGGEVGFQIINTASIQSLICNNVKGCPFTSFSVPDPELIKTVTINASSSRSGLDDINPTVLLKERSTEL
Description: Whole cell assay for COX-2 using CHO transfected cell line (CHO [hCOX-2]). As to conditions: CHO[hCOX-2] cells, 10 µM AA, PGE2 synthesis. The experiment is classed as cell-based. The method, then: Chinese hamster ovary (CHO) cell lines which have been stably transfected with an eukaryotic expression vector pCDNAIII containing either the human COX-1 or COX-2 cDNA's are used for the assay. These cell lines are referred to as CHO [hCOX-1] and CHO [hCOX-2], respectively. […] Cells (0.3 x 10^6 cells in 200 µl) are preincubated with 3 µl of the test drug or DMSO vehicle for 15 min at 37°C. […] Cells are then challenged in the presence or absence of drug with the AA/HBSS solution to yield a final concentration of 0.5 µM AA in the CHO[hCOX-1] assay and a final concentration of 10 µM AA in the CHO[hCOX-2] assay. […] The samples are centrifuged at 300 x g at 4°C for 10 min, and an aliquot of the clarified supernatant is appropriately diluted for the determination of PGE2 levels using an enzyme-linked immunoassay for PGE2 (Correlate PGE2 enzyme immunoassay kit, Assay Designs, Inc.). Cyclooxygenase activity in the absence of test compounds is determined as the difference in PGE2 levels of cells challenged with arachidonic acid versus the PGE2 levels in cells mock-challenged with ethanol vehicle. Inhibition of PGE2 synthesis by test compounds is calculated as a percentage of the activity in the presence of drug versus the activity in the positive control samples.
(§1) In the assay, inhibition is determined by measuring the amount of prostaglandin E2 (PGE2) synthesized in the presence of arachidonic acid, cyclooxygenase-1 or cyclooxygenase-2 and a putative inhibitor.

Experiment [2] deals with T1, COX-2. Put plainly: Human whole blood assay, COX-2 (LPS-induced PGE2 production). The following applies: 24 hours at 37°C, read-out: COX-2 (IC50 µM) HWB. The class given is cell-based. The source says: (§2) As well, platelets in whole blood contain a large amount of the COX-1 enzyme. Immediately following blood clotting, platelets are activated through a thrombin-mediated mechanism. This reaction results in the production of thromboxane B2 (TxB2) via activation of COX-1. Thus, the effect of test compounds on TxB2 levels following blood clotting can be examined and used as an index for COX-1 activity. Therefore, the degree of selectivity by the test compound can be determined by measuring the levels of PGE2 after LPS induction (COX-2) and TxB2 following blood clotting (COX-1) in the same assay.
Fresh blood is collected in heparinized tubes by venipuncture from both male and female volunteers. The subjects have no apparent inflammatory conditions and have not taken any NSAIDs for at least 7 days prior to blood collection. Plasma is immediately obtained from a 2mL blood aliquot to use as blank (basal levels of PGE2).

Experiment [3] concerns the target T2, COX-1 (Homo sapiens, UniProt P23219). Description: Assay of COX-1 activity from U937 cell microsomes. The class given is biochemical. Set-up: endogenous in cells; host or cells: U937 cells, 100,000 x g microsomal pellet. As to conditions: PGE2, read-out: COX-1 (IC50 µM) U-937. The method, then: U 937 cells are pelleted by centrifugation at 500 x g for 5 min and washed once with phosphate-buffered saline and repelleted. Cells are resuspended in homogenization buffer consisting of 0.1 M Tris-HCl, pH 7.4, 10 mM EDTA, 2 µg/ml leupeptin, 2 µg/ml soybean trypsin inhibitor, 2 µg/ml aprotinin and 1 mM phenyl methyl sulfonyl fluoride. The cell suspension is sonicated 4 times for 10 sec and is centrifuged at 10,000 x g for 10 min at 4° C. The supernatant is centrifuged at 100,000 x g for 1 hr at 4 °C. The 100,000 x g microsomal pellet is resuspended in 0.1 M Tris-HCl, pH 7.4, 10 mM EDTA to approximately 7 mg protein/ml and stored at -80° C.
Assays are performed in duplicate in a final volume of 250 µl. Initially, 5 µl of DMSO vehicle or drug in DMSO are added to 20 µl of 0.1 M Tris-HCl buffer, pH 7.4 containing 10 mM EDTA in wells of a 96-deepwell polypropylene titre plate. 200 µl of the microsomal preparation are then added and pre-incubated for 15 min at room temperature before addition of 25 µl of […] arachidonic acid in […] Tris-HCl and 10 mM EDTA, pH 7.4. Samples are incubated for 40 min at room temperature and the reaction is stopped by the addition of 25 µl of 1 N HCl. Samples are neutralized with 25 µl of 1 N NaOH prior to quantitation of PGE2 content by radioimmunoassay (Dupont-NEN or Amersham assay kits). Cyclooxygenase activity is defined as the difference between PGE2 levels in samples incubated in the presence of arachidonic acid and ethanol vehicle.
as §1

The target of experiment [4] is T2, COX-1. Put plainly: Human whole blood assay, COX-1 (clotting-induced TxB2 production). As to conditions: 1 hour at 37°C, read-out: COX-1 (IC50 µM) HWB. The class given is cell-based. On the set-up: endogenous in cells; host or cells: platelets in fresh human whole blood left to clot. The procedure:
as §2, with “Human whole blood provides a protein and cell-rich milieu appropriate for the study of biochemical efficacy of anti-inflammatory compounds such as selective COX-2 inhibitors. […] This is consistent with the observation that COX-2 inhibitors have no effect on PGE2 production in normal blood. These inhibitors are active only after incubation of human whole blood with LPS, which induces COX-2. This assay can be used to evaluate the inhibitory effect of selective COX-2 inhibitors on PGE2 production. As” for “As”
Fresh blood is collected into vacutainers containing no anticoagulants. Aliquots of 500µL are immediately transferred to siliconized microcentrifuge tubes preloaded with 2µL of either DMSO or a test compound at final concentrations varying from 10nM to 30µM. […]

Drawing on patent EP0975604B1, “PYRIDAZINONES AS INHIBITORS OF CYCLOOXYGENASE-2” (MERCK FROSST CANADA & CO., priority 1997, dated 1998), this text covers IC50 for twelve compounds.

The structures appear in SMILES notation. Where only a bound is given, the exact number is not on record here.

T2 sequence (P23219 24-599): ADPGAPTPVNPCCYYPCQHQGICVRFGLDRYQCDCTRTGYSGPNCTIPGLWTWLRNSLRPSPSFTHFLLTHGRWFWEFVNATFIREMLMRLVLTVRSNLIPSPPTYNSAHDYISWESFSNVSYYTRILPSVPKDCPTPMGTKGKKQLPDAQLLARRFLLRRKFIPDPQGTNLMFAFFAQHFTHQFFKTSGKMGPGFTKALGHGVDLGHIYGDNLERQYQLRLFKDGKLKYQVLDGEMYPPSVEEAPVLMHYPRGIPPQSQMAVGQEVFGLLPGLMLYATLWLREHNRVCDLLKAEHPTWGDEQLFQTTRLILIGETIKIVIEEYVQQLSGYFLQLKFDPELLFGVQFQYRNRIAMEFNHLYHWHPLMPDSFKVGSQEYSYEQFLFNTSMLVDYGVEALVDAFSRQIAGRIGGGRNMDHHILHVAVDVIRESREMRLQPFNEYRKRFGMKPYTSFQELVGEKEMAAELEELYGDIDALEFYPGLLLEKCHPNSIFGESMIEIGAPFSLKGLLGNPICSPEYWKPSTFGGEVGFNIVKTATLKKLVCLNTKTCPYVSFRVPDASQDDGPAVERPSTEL

By IC50 is commonly meant the midpoint of a concentration-inhibition curve. As to `CS(=O)(=O)c1ccc(-c2cnn(CC(F)(F)F)c(=O)c2-c2ccccc2)cc1` [Example 4, 5-(4-Methylsulfonyl)phenyl-4-phenyl-2-(2,2,2-trifluoroethyl)-2H-pyridazin-3-one], the IC50 against COX-2 [1] was 0.5 µM; at COX-2 [2] it was 11.1 µM; at COX-1 [3], > 10 µM.

On to `CS(=O)(=O)c1ccc(-c2cnn(Cc3ccc(F)cc3)c(=O)c2-c2ccccc2)cc1` [Example 10, 2-(4-Fluorobenzyl)-5-(4-methylsulfonyl)phenyl-4-phenyl-2H-pyridazin-3-one], for which the figures for the concentration for half-maximal inhibition (IC50) against COX-2 [1], at COX-2 [2] and at COX-1 [3] were 0.17 µM, 0.9 µM and > 10 µM, respectively.

In the case of `CS(=O)(=O)c1ccc(-c2cnn(CC3CC3)c(=O)c2-c2ccc(F)c(F)c2)cc1` [Example 7, 2-Cyclopropylmethyl-4-(3,4-difluorophenyl)-5-(4-methylsulfonyl)phenyl-2H-pyridazin-3-one], the figures for the IC50 on COX-2 [1], on COX-2 [2] and at COX-1 [3] were 0.16 µM, 3.2 µM and > 10 µM, respectively.

Consider `Cn1ncc(-c2ccc(S(C)(=O)=O)cc2)c(-c2ccccc2)c1=O` [Example 2, 2-Methyl-5-(4-methylsulfonyl)phenyl-4-phenyl-2H-pyridazin-3-one], for which the IC50 is 0.7 µM at COX-2 [1] and 21 µM at COX-2 [2].

In the case of `CS(=O)(=O)c1ccc(-c2cnn(-c3ccccc3)c(=O)c2-c2ccccc2)cc1` [Example 1, 5-(4-Methylsulfonyl)phenyl-2-phenyl-4-phenyl-2H-pyridazin-3-one], the values for the IC50 at COX-2 [1] and at COX-2 [2] were 0.08 µM and 4.7 µM, respectively.

In the case of `CS(=O)(=O)c1ccc(-c2cnn(Cc3ccccc3)c(=O)c2-c2ccc(F)c(F)c2)cc1` [Example 9, 2-Benzyl-4-(3,4-difluorophenyl)-5-(4-methylsulfonyl)phenyl-2H-pyridazin-3-one], the results for the IC50 at COX-2 [1], at COX-2 [2] and at COX-1 [3] were 0.04 µM, 1.9 µM and 3 to 10 µM, respectively.

With `CS(=O)(=O)c1ccc(-c2cnn(CC3CC3)c(=O)c2-c2ccccc2)cc1` [Example 3, 2-Cyclopropylmethyl-5-(4-methylsulfonyl)phenyl-4-phenyl-2H-pyridazin-3-one], the half-inhibitory concentration (IC50) is 0.07 µM against COX-2 [1], 1.3 µM on COX-2 [2] and > 10 µM at COX-1 [3].

For `CS(=O)(=O)c1ccc(-c2cnn(Cc3ccccn3)c(=O)c2-c2ccccc2)cc1` [Example 8, 5-(4-Methylsulfonyl)phenyl-4-phenyl-2-(2-pyridylmethyl)-2H-pyridazin-3-one], the IC50 was ~2 µM against COX-2 [1], > 33 µM at COX-2 [2] and > 10 µM on COX-1 [3].

With `CC(C)n1ncc(-c2ccc(S(C)(=O)=O)cc2)c(-c2ccccc2)c1=O` [Example 6, 2-Isopropyl-5-(4-methylsulfonyl)phenyl-4-phenyl-2H-pyridazin-3-one], the values for the IC50 on COX-2 [1], at COX-2 [2] and at COX-1 [3] were 0.6 µM, 2.6 µM and > 10 µM, respectively.

As to `COC(=O)Cn1ncc(-c2ccc(S(C)(=O)=O)cc2)c(-c2ccccc2)c1=O` [Example 11, 2-Carbomethoxymethyl-5-(4-methylsulfonyl)phenyl-4-phenyl-2H-pyridazin-3-one], the IC50 at COX-2 [1] was 5 µM; at COX-2 [2] it was 9.2 µM; on COX-1 [3], > 10 µM.

Turning to `CS(=O)(=O)c1ccc(-c2cnn(Cc3ccccc3)c(=O)c2-c2ccc(F)cc2)cc1` [Example 12, 2-Benzyl-4-(4-fluorophenyl)-5-(4-methylsulfonyl)phenyl-2H-pyridazin-3-one], the IC50 at COX-1 [3] was in the range of 3 to 10 µM.

As for `CS(=O)(=O)c1ccc(-c2cnn(Cc3ccccc3)c(=O)c2-c2ccccc2)cc1` [Example 5, 2-Benzyl-5-(4-methylsulfonyl)phenyl-4-phenyl-2H-pyridazin-3-one], the figures for the IC50 at COX-1 [3] and at COX-1 [4] were > 10 µM and > 50 µM, respectively.
